Data as given in patent US8465780B2, “Borate micro emulsion and method for making the same” (Nisus Corporation, priority 2006, dated 2013).
Blank lines part the entries; values can stand above or below the molecule they belong to.

How the values were obtained:
[1] = Borate dissolution test in 300 mm water column; type: physicochemical; settings: 0.2 g (0.08 weight %) in 250 ml deionized water, 300 mm column
Description: In this example, different forms of borates were added to columns of water and a swimming pool to determine their comparative dispersion and rate of dissolution characteristics.
Two hundred and fifty (250) ml of deionized water was placed in each of 4 measuring cylinders to give a 300 mm vertical column of water in each cylinder to mimic in small scale the depth of water in a swimming pool. […] The results of the addition were then observed visually and recorded.

[2] = Free chlorine and pH in 2000 gallon swimming pools (Example 6)
[3] = test system: algae; assay: Algae growth suppression in lake water (Example 4); type: cell-based; settings: 0.1 weight percent in lake water, two months outside in sun; higher = more algal growth
Description: From this lake sample, three 1 liter glass beakers were each filled with 900 mL of lake water. […] Sodium tetraborate was added to a second beaker to provide a concentration of 0.1 weight percent sodium tetraborate. The third beaker was left as an untreated control. The three samples, which were collected in August, were then left outside, fully exposed to the sun, for a period of two months.
After the two month period, the samples were then visually inspected for algal growth. The samples were also analyzed using a Spectronic Genesys 20 spectrophotometer from Thermo Scientific. This analysis was conducted by testing for absorbance at 330 nm.

Molecule: OB(O)O [boric acid, reference compound]
dispersion and dissolution, observed visually [1]: mostly float on top of the water and did not completely dissolve

pH for swimming pool water ([2]; 1:25 pm): 7.2-7.8 | pH for swimming pool water ([2]; 2:10 pm): 7.2-7.8 | pH for swimming pool water ([2]; 2:50 pm): 7.2-7.8 | pH for swimming pool water ([2]; 3:30 pm): 7.2-7.8 | pH for swimming pool water ([2]; 4:10 pm): 7.2-7.8 | pH for swimming pool water ([2]; 5:00 pm): 7.2-7.8 | pH for swimming pool water ([2]; 9:45 am, before calcium hypochlorate addition, 4 pounds borate per 2000 gallons): 7.2-7.8 | pH for swimming pool water ([2]; 10:00 am, time of calcium hypochlorate addition): 7.2-7.8 | pH for swimming pool water ([2]; 10:55 am): 7.2-7.8 | pH for swimming pool water ([2]; 11:15 am): 7.8-8.4 | pH for swimming pool water ([2]; 12:00 pm): 7.8-8.4 | pH for swimming pool water ([2]; 12:40 pm): 7.8-8.4
Molecule: sodium hexaborate

Molecule: O=BOB(O)OB(O)OB=O [Sodium tetraborate, sodium tetraborate]
Absorbance (Abs.) at 330 nm [3]: 0.01 Abs.

Molecule: O.O.O.O.O=BOB1OB(OB=O)OB2OB([O-])OB([O-])OB(O1)O2.[Na+].[Na+] [disodium octaborate tetrahydrate]
dispersion and dissolution, observed visually [1]: immediately disperse and fully dissolve in a matter of seconds
